Laboratory results from article PMC8807399, “Synthesis, Characterization, and in vivo Evaluation of a Novel Potent Autotaxin-Inhibitor” (Frontiers in Pharmacology, 2022).
In brackets after ≈: the same amount, converted by molar mass.

Tests used:
[1] = molecular target: T1, Norepinephrine transporter (Homo sapiens, UniProt P23975); test: Off-target screen Norepinephrine transporter; type: binding; conditions: 10 µM; single point, duplicates
T1 construct: purchased Eurofins CEREP SA

ML3R = test: Off-target screen ML3R; conditions: 10 µM; single point, duplicates
[2] = test system: Ca2^+ channel (diltiazem site); test: Off-target screen Ca2+ channel (diltiazem site); conditions: 10 µM; single point, duplicates
Sodium channel (site 2) = test: Off-target screen Sodium channel (site 2); conditions: 10 µM; single point, duplicates
[3] = molecular target: T2, Neprilysin (neutral endopeptidase) (Homo sapiens, UniProt P08473); test: Off-target screen Neprilysin; type: biochemical; conditions: 10 µM; single point, duplicates
T2 construct: purchased Eurofins CEREP SA

Glucocorticoid receptor = molecular target: T3, Glucocorticoid receptor (Homo sapiens, UniProt P04150); test: Off-target screen Glucocorticoid receptor; type: binding; conditions: 10 µM; single point, duplicates
T3 construct: purchased Eurofins CEREP SA

HT-solubility assay = type: physicochemical; conditions: aqueous buffer, thermodynamic from solid; phosphate buffer pH 6.5
Method: This assay was performed on a TECAN station starting from 10 mM DMSO stock solutions of the test compounds. Two aliquots of the test compound were dried and dissolved in phosphate buffer at pH 6.5. Sonication supports optimal re-solubilization. The solutions were then filtered and diluted (3 different dilution levels for each compound) followed by quantification of the dissolved material with Rapid-Fire MS. Quantification was performed for each test compound with a 6-point calibration curve prepared with the same DMSO starting solution.

S1P3 = molecular target: T4, S1P3 (Homo sapiens, UniProt Q99500); test: Off-target screen S1P3, antagonist mode; type: cell-based; conditions: 10 µM, single point, duplicates
T4 construct: purchased Eurofins CEREP SA

I/R model rats = test: Retinal ischemia/reperfusion (I/R) model; type: in vivo, rat; conditions: for ERG b-wave amplitude: I/R + ATX-i eyes vs control; for ERG a-wave amplitude: I/R + ATX-i group vs control
Method: Diets containing compound 13 were manufactured by ssniff Spezialdiäten GmbH (Soest, Germany). Calculations of the daily doses were based on average food intake of rats used in the studies. The regular chow diet for the 60 mg/kg dose was calculated as 8.5 kg and mixed with a solution of 13 in ethanol (4.8%, w/w). The amount of 13 used was 1.0 g per kg of food. After mixing, ethanol was removed in vacuo until dryness. For the preparation of the 20 mg/kg dose, the same procedure was used by applying 0.333 g of 13 per kg of food.
The oral treatment with the ATX-inhibitor 13 (ATX-i; 20 mg/kg; Roche) started 7 days prior to immunization and 3 days prior I/R induction and continued throughout the study. The regular chow diet for the treatment groups was replaced with the same chow diet containing the treatment substance.
An established I/R model was used ([Schmid et al., 2014]; [Renner et al., 2017]). Therefore, rats were anesthetized with a ketamine/xylazine/vetranquil cocktail (0.65/0.65/0.2 ml). One eye per animal was dilated with 5% tropicamide (Pharma Stulln, Stulln, Germany) and anesthetized topically with conjuncain (Bausch and Lomb, Berlin, Germany). Additionally, a pain medication injection of metamizole (Novalgin; Zentiva, Frankfurt am Main, Germany) was administered subcutaneously. IOP was raised to 140 mmHg for 60 min by elevating a saline reservoir connected to a needle, which was placed into the anterior chamber of the eye. Retinal ischemia was confirmed by observing whitening of the retina via an ophthalmoscope (Mini 300; Heine Optotechnik, Herrsching, Germany). Reperfusion was later reassured by observing the returning blood flow. The contralateral eye was used as a control. Analyses were performed 7 and 14 days after ischemia induction.
ERG measurements were performed on all eyes 7 and 14 days after I/R induction as previously described ([Schmid et al., 2014]; [Palmhof et al., 2018]). Before performing the ERG under dim red light, rats were dark adapted overnight. The readings were done using a full-field flash electroretinograph (HMs ERG system, OcuScience, Henderson, NV, United States). After anesthesia with a ketamine/xylazine cocktail (100/4 mg/kg) eyes were dilated and topically anesthetized. Reference electrodes were placed subcutaneously below the right and left ear and a ground electrode was placed in the base of the tail. Silver thread recording electrodes were placed in the center of the cornea. Scotopic flash ERGs were recorded at 0.1, 0.3, 1, 3, 10, and 25 cd*s/m^2 for each eye (7 days: 5-6 eyes/group; 14 days: 6-7 eyes/group). Signals obtained from the corneal surface were then amplified, digitized, and averaged using ERG View 4.380R software (OcuScience).
After explantation, eyes and optic nerves were fixed in 4% paraformaldehyde for 60 min (eyes) or 120 min (optic nerves) and then treated with 30% sucrose overnight. Afterwards, the retinas and optic nerves were embedded in NEG-50 Tissue-Tek medium (Thermo Fisher, Waltham, MA, United States). Cryo-cross sections of the eyes (10 µm) or longitudinal sections of the optic nerves (4 µm) were cut on a microtome (Thermo Fisher), mounted on Histobond Superfrost^+ slides (Thermo Fisher) and fixed in ice cold acetone for 10 min.
Retinal cross-sections from the I/R studies were stained with hematoxylin and eosin (H&E) to visualize retinal layers and changes in the thickness of the layers using standard protocols (7 days: 5-6 retinas/group; 14 days: 6-7 retinas/group). The thickness of the ganglion cell layer (GCL) was analyzed with the measuring tool of the ZEN2012 image analysis software (Zeiss, Oberkochen, Germany). Therefore, they were measured three times and the value was averaged ([Palmhof et al., 2019]).
Longitudinal optic nerve sections (EAG: 5-6 nerves/group, I/R 14 days: 6-7 nerves/group) were stained with H&E and luxol fast blue (LFB). […]

MMP-1 = molecular target: T5, MMP-1 (Homo sapiens, UniProt P03956); test: Off-target screen MMP-1; type: biochemical; conditions: 10 µM; single point, duplicates
T5 construct: purchased Eurofins CEREP SA

ADAM 17 = molecular target: T6, ADAM 17 (Homo sapiens, UniProt P78536); test: Off-target screen ADAM 17; type: biochemical; conditions: 10 µM; single point, duplicates
T6 construct: purchased Eurofins CEREP SA

Estrogen receptor alpha = molecular target: T7, Estrogen receptor alpha (Homo sapiens, UniProt P03372); test: Off-target screen Estrogen receptor alpha; type: binding; conditions: 10 µM; single point, duplicates
T7 construct: purchased Eurofins CEREP SA

LPA3 receptor = molecular target: T8, LPA3 receptor (Homo sapiens, UniProt Q9UBY5); test: Off-target screen LPA3 receptor, antagonist mode; type: cell-based; conditions: 10 µM, single point, duplicates
T8 construct: purchased Eurofins CEREP SA

Androgen receptor = molecular target: T9, Androgen receptor (Homo sapiens, UniProt P10275); test: Off-target screen Androgen receptor; type: binding; conditions: 10 µM; single point, duplicates
T9 construct: purchased Eurofins CEREP SA
T9 sequence (P10275 whole entry): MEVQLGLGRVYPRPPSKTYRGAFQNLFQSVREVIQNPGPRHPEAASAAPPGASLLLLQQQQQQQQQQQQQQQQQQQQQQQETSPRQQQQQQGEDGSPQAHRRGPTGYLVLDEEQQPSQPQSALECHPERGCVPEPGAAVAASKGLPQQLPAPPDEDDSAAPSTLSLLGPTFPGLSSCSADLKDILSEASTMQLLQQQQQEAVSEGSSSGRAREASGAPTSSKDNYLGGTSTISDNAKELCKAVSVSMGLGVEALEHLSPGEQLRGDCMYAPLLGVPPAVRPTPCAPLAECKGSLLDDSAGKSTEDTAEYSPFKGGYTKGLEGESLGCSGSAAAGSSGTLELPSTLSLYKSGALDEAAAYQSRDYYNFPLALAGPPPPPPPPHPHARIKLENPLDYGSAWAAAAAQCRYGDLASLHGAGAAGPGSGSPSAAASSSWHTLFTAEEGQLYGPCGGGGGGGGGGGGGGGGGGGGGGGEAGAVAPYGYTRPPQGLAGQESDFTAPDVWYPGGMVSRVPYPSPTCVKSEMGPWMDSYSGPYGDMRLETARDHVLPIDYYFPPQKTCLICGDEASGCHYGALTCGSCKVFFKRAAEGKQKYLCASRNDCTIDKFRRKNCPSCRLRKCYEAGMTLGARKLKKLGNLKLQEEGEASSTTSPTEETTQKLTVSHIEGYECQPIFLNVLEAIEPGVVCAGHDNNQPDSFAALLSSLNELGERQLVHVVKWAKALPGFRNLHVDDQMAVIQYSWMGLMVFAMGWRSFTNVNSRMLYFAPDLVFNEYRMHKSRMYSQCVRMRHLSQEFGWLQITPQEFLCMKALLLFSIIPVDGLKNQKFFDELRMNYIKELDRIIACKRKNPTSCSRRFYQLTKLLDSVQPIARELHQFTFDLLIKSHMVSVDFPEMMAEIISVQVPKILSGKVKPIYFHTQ

T1 sequence (P23975 whole entry): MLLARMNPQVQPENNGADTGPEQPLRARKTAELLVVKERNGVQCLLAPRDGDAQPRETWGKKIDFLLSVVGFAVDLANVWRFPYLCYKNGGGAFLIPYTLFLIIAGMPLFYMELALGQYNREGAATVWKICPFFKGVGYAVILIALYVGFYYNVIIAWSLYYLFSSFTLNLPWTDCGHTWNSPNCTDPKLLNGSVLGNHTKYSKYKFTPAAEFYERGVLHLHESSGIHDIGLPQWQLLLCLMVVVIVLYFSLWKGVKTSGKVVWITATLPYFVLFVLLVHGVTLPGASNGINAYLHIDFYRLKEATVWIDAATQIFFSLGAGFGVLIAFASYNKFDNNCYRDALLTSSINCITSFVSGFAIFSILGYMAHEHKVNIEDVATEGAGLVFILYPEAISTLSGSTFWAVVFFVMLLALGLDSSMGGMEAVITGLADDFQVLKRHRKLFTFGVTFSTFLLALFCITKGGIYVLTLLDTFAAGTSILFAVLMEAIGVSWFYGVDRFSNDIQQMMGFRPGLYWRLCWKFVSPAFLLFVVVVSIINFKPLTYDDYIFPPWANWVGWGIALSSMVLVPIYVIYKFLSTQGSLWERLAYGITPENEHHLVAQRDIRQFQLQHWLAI
T6 sequence (P78536 215-824): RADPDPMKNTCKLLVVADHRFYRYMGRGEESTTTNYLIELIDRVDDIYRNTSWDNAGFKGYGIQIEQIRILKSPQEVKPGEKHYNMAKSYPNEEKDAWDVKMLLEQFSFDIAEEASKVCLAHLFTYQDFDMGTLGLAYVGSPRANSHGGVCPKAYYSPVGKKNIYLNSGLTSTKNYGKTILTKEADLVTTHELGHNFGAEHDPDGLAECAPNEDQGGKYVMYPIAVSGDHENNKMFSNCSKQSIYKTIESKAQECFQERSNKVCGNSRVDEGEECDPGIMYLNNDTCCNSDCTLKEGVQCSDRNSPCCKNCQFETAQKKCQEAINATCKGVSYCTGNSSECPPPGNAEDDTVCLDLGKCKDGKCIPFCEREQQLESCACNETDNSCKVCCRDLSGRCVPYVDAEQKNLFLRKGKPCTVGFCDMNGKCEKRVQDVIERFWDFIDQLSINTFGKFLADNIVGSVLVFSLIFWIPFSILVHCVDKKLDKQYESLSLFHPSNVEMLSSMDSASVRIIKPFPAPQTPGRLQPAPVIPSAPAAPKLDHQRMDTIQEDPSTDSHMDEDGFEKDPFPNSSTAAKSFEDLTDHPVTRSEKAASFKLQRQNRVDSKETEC
T8 sequence (Q9UBY5 whole entry): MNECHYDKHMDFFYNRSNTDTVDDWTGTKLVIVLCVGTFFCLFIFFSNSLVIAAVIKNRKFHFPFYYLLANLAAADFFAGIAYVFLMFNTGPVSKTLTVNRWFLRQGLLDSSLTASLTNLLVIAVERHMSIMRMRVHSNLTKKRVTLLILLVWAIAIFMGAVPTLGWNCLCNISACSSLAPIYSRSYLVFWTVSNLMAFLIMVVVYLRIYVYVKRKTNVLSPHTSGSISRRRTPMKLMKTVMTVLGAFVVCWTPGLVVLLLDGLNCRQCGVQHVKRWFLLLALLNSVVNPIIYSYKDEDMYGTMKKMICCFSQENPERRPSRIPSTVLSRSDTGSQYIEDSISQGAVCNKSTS
T5 sequence (P03956 100-469): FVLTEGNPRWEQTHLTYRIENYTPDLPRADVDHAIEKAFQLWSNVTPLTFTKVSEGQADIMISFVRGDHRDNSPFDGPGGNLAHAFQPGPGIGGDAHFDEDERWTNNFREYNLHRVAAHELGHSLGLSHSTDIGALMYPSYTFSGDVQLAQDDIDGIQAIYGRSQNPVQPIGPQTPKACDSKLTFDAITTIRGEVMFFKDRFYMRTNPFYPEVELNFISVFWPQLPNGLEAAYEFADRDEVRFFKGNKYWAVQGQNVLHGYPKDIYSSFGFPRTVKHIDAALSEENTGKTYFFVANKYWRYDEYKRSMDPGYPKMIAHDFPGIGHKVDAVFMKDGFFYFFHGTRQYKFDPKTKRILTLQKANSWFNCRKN
T7 sequence (P03372 whole entry): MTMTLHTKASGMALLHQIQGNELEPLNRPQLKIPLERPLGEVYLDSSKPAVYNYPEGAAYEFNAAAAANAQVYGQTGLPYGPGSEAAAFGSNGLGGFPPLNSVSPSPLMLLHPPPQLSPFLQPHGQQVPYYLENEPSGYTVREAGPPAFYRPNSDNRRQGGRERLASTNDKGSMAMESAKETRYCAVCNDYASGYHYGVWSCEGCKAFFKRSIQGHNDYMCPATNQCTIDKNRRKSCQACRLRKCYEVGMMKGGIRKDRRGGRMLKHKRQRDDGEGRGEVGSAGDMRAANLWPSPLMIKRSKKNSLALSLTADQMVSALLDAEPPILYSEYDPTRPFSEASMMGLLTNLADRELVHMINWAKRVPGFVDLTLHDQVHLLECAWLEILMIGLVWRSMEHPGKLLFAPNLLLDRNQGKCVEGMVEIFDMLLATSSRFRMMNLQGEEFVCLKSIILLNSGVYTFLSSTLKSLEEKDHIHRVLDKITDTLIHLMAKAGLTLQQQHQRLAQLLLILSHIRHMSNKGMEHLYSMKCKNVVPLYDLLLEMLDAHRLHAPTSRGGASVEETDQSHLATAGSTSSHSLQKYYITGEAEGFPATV
T3 sequence (P04150 whole entry): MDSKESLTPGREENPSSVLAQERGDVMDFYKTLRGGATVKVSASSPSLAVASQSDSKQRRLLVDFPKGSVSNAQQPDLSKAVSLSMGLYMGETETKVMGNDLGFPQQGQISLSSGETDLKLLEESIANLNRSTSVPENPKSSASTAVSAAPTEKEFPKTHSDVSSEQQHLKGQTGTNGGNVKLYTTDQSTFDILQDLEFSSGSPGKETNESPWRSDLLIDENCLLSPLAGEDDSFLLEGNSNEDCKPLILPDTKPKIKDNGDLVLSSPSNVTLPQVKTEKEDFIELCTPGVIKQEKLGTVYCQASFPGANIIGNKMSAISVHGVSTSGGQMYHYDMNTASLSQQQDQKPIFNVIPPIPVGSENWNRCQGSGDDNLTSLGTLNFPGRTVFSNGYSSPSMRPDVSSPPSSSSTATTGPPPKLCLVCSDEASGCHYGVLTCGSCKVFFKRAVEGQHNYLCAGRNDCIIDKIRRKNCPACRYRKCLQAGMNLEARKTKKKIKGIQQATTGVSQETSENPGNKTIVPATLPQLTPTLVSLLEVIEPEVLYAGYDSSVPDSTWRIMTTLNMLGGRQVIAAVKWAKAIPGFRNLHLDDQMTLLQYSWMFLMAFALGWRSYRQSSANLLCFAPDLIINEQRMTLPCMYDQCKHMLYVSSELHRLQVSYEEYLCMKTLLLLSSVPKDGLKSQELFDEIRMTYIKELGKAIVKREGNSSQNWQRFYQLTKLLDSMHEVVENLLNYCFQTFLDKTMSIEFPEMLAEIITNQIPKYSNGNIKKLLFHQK
T2 sequence (P08473 whole entry): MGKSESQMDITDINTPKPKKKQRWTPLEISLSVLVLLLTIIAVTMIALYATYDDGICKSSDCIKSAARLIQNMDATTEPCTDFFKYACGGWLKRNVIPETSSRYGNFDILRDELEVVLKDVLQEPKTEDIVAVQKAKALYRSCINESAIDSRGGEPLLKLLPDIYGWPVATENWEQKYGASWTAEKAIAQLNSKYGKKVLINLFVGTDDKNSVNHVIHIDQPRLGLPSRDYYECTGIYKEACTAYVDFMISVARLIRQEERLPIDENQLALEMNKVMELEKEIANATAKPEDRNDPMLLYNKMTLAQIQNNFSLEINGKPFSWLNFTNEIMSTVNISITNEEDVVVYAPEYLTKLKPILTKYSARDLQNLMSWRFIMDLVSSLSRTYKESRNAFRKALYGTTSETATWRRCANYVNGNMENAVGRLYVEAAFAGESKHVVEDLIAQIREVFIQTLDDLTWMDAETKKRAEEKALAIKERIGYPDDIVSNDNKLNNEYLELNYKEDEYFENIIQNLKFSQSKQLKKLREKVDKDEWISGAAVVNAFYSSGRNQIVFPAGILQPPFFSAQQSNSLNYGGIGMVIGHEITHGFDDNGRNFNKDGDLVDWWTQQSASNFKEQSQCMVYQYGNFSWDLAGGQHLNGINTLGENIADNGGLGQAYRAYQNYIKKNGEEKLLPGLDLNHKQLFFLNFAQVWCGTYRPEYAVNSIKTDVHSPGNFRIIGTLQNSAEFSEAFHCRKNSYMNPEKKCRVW

Question: Which results are given for `O=C(OCc1ccc(OC(F)(F)F)cc1)N1C[C@@H]2CN(C(=O)c3ccc4[nH]nnc4c3)C[C@H]2C1` [Compound 13, (3aS,6aS)-5-(1H-Benzotriazole-5-carbonyl)-hexahydro-pyrrolo[3,4-c]pyrrole-2-carboxylic acid 4-trifluoromethoxy-benzyl ester]?
Answer: Norepinephrine transporter (h) [% inhib] [1]: 20 % inhib; ML3R (h) [% inhib] (ML3R): 48 % inhib; Ca2^+ channel (diltiazem site) (r) [% inhib] [2]: 9 % inhib; Sodium channel (site 2) (r) [% inhib] (Sodium channel (site 2)): 49 % inhib; Neprilysin (neutral endopeptidase) (h) [% inhib] [3]: -29 % inhib; Glucocorticoid receptor (h) [% inhib] (Glucocorticoid receptor): 6 % inhib; solubility (HT-solubility assay): 28 µg/mL (≈ 58.9 µM); S1P3 (h), antago. mode [% inhib] (S1P3): 47 % inhib; ERG b-wave amplitude (I/R model rats; 7 days (p < 0.001)): significantly lower; ERG b-wave amplitude (I/R model rats; 14 days (p < 0.001)): significantly declined; ERG a-wave amplitude (I/R model rats; 7 days, all light intensities (p < 0.050)): significant decrease; ERG a-wave amplitude (I/R model rats; 14 days, all light intensities (p > 0.050), vs I/R increased at 0.1 cd s/m^2 (p = 0.027)): comparable to the control ones; GCL thickness (I/R model rats; I/R + ATX-i group, 20 mg/kg food admix, 7 days, I/R 4.03 ± 0.84, control 6.28 ± 1.57): 4.34 ± 1.63 µm; β-III tubulin protein level (Western Blot), retina (I/R model rats; I/R + ATX-i group, 7 days, I/R 0.18 ± 0.17, control 1.39 ± 0.52): 0.28 ± 0.30; Iba1 protein level (Western Blot), retina (I/R model rats; I/R + ATX-i group, 7 days, I/R 0.61 ± 0.05, control 0.47 ± 0.11): 0.50 ± 0.21; GFAP+ area, retina (I/R model rats; I/R + ATX-i group, 7 days, I/R 3.44 ± 1.52, control 2.46 ± 1.41): 2.98 ± 1.13 area [%]/section; GFAP protein level (Western Blot), retina (I/R model rats; I/R + ATX-i group, 7 days, I/R 4.00 ± 1.95, control 0.71 ± 0.33): 3.90 ± 1.14; Cleaved caspase 3+ apoptotic RGCs (I/R model rats; I/R + ATX-i group, 7 days, I/R 5.97 ± 1.93, control 2.62 ± 1.59): 6.21 ± 1.62 cells/mm; Brn-3a+ RGC number, retina (I/R model rats; I/R + ATX-i group, 7 days, I/R 10.95 ± 2.48, control 48.29 ± 3.94, p = 0.008 vs I/R): 17.61 ± 1.63 cells/mm; ED1+ and Iba1+ co-labeled cells, retina (I/R model rats; I/R + ATX-i group, 7 days, I/R 34.74 ± 6.57, control 0.81 ± 0.91, p = 0.045 vs I/R): 26.91 ± 4.48 cells/mm; Iba1+ microglia, retina (I/R model rats; I/R + ATX-i group, 7 days, I/R 38.44 ± 7.75, control 5.65 ± 2.29, p = 0.045 vs I/R): 29.04 ± 5.19 cells/mm; β-III tubulin protein level (Western Blot), retina (I/R model rats; I/R + ATX-i group, 14 days, I/R 0.06 ± 0.03, control 0.60 ± 0.08): 0.13 ± 0.08; Iba1 protein level (Western Blot), retina (I/R model rats; I/R + ATX-i group, 14 days, I/R 0.95 ± 0.54, control 0.28 ± 0.19): 0.69 ± 0.44; GFAP protein level (Western Blot), retina (I/R model rats; I/R + ATX-i group, 14 days, I/R 1.60 ± 0.19, control 0.19 ± 0.06): 1.31 ± 0.66; GCL thickness (I/R model rats; I/R + ATX-i group, 14 days, I/R 2.76 ± 0.16, control 5.28 ± 0.43, p = 0.003 vs I/R): 3.54 ± 0.34 µm; Activated microglia (ED1+ and Iba1+), optic nerve (I/R model rats; I/R + ATX-i group, 14 days, I/R 5.28 ± 0.76, control 0.06 ± 0.06): 5.71 ± 1.04 cells/image; Cleaved caspase 3+ cells (I/R model rats; I/R + ATX-i group, 14 days, I/R 5.38 ± 0.83, control 2.58 ± 0.72): 5.02 ± 1.52 cells/mm; Iba1+ cells, optic nerve (I/R model rats; I/R + ATX-i group, 14 days, I/R 5.65 ± 0.75, control 2.74 ± 1.06): 6.10 ± 1.09 cells/image; Brn-3a+ RGC number, retina (I/R model rats; I/R + ATX-i group, 14 days, I/R 5.81 ± 2.85, control 56.32 ± 11.74, p = 0.017 vs I/R): 21.62 ± 8.84 cells/mm; GFAP+ area, retina (I/R model rats; I/R + ATX-i group, 14 days, I/R 7.02 ± 2.71, control 3.35 ± 0.98): 5.01 ± 1.70 area [%]/section; ED1+ and Iba1+ activated microglia, retina (I/R model rats; I/R + ATX-i group, 14 days, I/R 34.20 ± 9.12, control 2.99 ± 1.26): 28.27 ± 7.63 cells/mm; Iba1+ microglia, retina (I/R model rats; I/R + ATX-i group, 14 days, I/R 45.5 ± 11.78, control 26.28 ± 3.33): 41.17 ± 9.33 cells/mm; GFAP score, optic nerve (I/R model rats; I/R + ATX-i group, 14 days, score 0-2, I/R 1.13 ± 0.13, control 0.89 ± 0.30): 1.23 ± 0.25; Optic nerve LFB score (I/R model rats; I/R + ATX-i group, 14 days, score 0-2, I/R 1.19 ± 0.25, control 0.54 ± 0.42): 1.09 ± 0.17; Optic nerve SMI-32 score (I/R model rats; I/R + ATX-i group, 14 days, score 0-2, I/R 1.27 ± 0.31, control 0.47 ± 0.27): 1.05 ± 0.21; Optic nerve H&E score (I/R model rats; I/R + ATX-i group, 14 days, score 0-4, I/R 2.43 ± 0.37, control 0.77 ± 0.27): 2.25 ± 0.44; MMP-1 (h) [% inhib] (MMP-1): -9 % inhib; ADAM 17 (h) [% inhib] (ADAM 17): 9 % inhib; Estrogen receptor alpha (h) [% inhib] (Estrogen receptor alpha): -6 % inhib; LPA3 receptor (h), antago. mode [% inhib] (LPA3 receptor): 56 % inhib; Androgen receptor (h) [% inhib] (Androgen receptor): -1 % inhib
